This experiment deals with T1, Kv7.2/7.3 (Homo sapiens, UniProt O43525+O43526).
T1 construct: Kv7.3 is constitutive and Kv7.2 is tetracycline-induced
The experiment can be described thus: Kv7.2/7.3 Thallium Flux Assay (FluxOR II Green). In kind it is cell-based. The following applies: single concentration of 10 μM; fluorescence at 90 sec normalized to positive control (retigabine, 30 μM); hKv7.2/7.3 cell line. The source says:
The Thallium Flux Assay is used as a surrogate indicator of potassium channel activity.
The experimental protocol was adapted from the FluxOR™ II Green Potassium Ion Channel Assay User Guide (Pub. No. MAN0016084, Invitrogen). Conditions were optimized for the Kv7.2/7.3 cell line.
Cell Line: The hKV7.2/7.3 cell line was obtained from Chantest (cat. #CT6147).
Cell Culture: Kv7.2/7.3 cells were maintained in a media containing DMEM/F12; 50/50 (Fisher 11-330), 10% Fetal Bovine Serum (FBS) (Fisher 26-140), 100 units/mL Penicillin-Streptomycin (Fisher 15-140), 0.005 mg/ml Blasticidin (InvivoGen ant-bl-1), 0.5 mg/mL Geneticin (InvivoGen ant-gn-5), and 0.1 mg/mL Zeocin (Fisher R25001). One day prior to experimentation, cells were plated in 96 well clear bottom plates (Corning cat. #353219) in a media without Blasticidin, Geneticin, or Zeocin. In this cell line Kv7.3 channel expression is controlled by a constitutive promoter. Kv7.2 channel expression was induced by adding tetracycline (Sigma T7660) at a final concentration of 10 ng/mL overnight in a cell culture incubator at 37° C. and 5% CO2. On the day of assay, the cell culture medium in the 96-well plates was replaced by assay buffer containing the thallium-sensitive fluorescent sensor, FluxOR II Green prepared according to manufacturer's instructions. The 96-well plates were then incubated for 1 h at 37° C. Following the incubation, the FluxOR II Green-containing solution was replaced with extracellular solution.
Test Compound Plates: The test compound is diluted in a mixture of 0.1% DMSO/extracellular solution at a single concentration of 10 μM. Dilutions were made on a Biomek NXP (BECKMAN COULTER). Extracellular solution contained (in mM: 145 NaCl, 4 KCl, 2 CaCl2), 1 MgCl2, 10 HEPES, and 10 Glucose, pH 7.4)
Measurement and data analysis: Thallium-flux-mediated changes in intracellular fluorescence were made using a plate reader (Enspire, Perkin Elmer) set with an excitation wavelength of 475 nm and an emission wavelength of 530 nm. After a 15 sec baseline measurement, the stimulus buffer containing thallium and potassium was added to the 96-well plate containing FluxOR II Green-loaded cells and test compounds. Fluorescence values at 90 sec were normalized to the positive control (retigabine, 30 μM) and test compound activities were assigned categories according to the formula: “No Activity <0.15, “+” Moderate Activity 0.15-0.7, and “++” High Activity >0.7.

Structures are written as SMILES.

In the case of `O=C(Nc1n[nH]c(-c2ccc(Cl)s2)c1C1CCC1)C1CC(C(F)(F)F)C1` (stereo not shown) [Compound 4, N-(5-(5-chlorothiophen-2-yl)-4-cyclobutyl-1H-pyrazol-3-yl)-3-(trifluoromethyl)cyclobutane-1-carboxamide], the “Kv7.2/7.3 Activity” value is recorded as “++ (“++” High Activity ≥0.7)”.
Turning to `O=C(Nc1n[nH]c(-c2ccc(Cl)s2)c1C1CCC1)C1CSC1` [Compound 3, N-(5-(5-chlorothiophen-2-yl)-4-cyclobutyl-1H-pyrazol-3-yl)thietane-3-carboxamide], the “Kv7.2/7.3 Activity” value was “− (“−” No Activity <0.15)”.
With `O=C(CC1CC(F)(F)C1)Nc1n[nH]c(-c2ccc(F)cc2)c1C1CCC1` [Compound 1, N-(4-cyclobutyl-5-(4-fluorophenyl)-1H-pyrazol-3-yl)-2-(3,3-difluorocyclobutyl)acetamide], the “Kv7.2/7.3 Activity” value is given as “++ (“++” High Activity ≥0.7)”.
For the compound `O=C(Nc1[nH]nc(C2CC(F)(F)C2)c1C1CCC1)OC1CC(F)(F)C1` [Compound 7, 3,3-difluorocyclobutyl (4-cyclobutyl-3-(3,3-difluorocyclobutyl)-1H-pyrazol-5-yl)carbamate], the “Kv7.2/7.3 Activity” value is recorded as “++ (“++” High Activity ≥0.7)”.
On to `O=C(Nc1n[nH]c(-c2ccc(Cl)s2)c1C1CCC1)C1CC(F)(F)C1` [Compound 2, N-(5-(5-chlorothiophen-2-yl)-4-cyclobutyl-1H-pyrazol-3-yl)-3,3-difluorocyclobutane-1-carboxamide], for which the “Kv7.2/7.3 Activity” value is given as “++ (“++” High Activity ≥0.7)”.
For `O=C(Nc1n[nH]c(-c2ccc(F)cc2)c1C1CCC1)C1CC(F)(F)C1` [Compound 6, N-(4-cyclobutyl-5-(4-fluorophenyl)-1H-pyrazol-3-yl)-3,3-difluorocyclobutane-1-carboxamide], the “Kv7.2/7.3 Activity” value is given as “++ (“++” High Activity ≥0.7)”.
Regarding `C[C@@H](C(=O)Nc1n[nH]c(-c2ccc(Cl)s2)c1C1CCC1)C1(C(F)(F)F)CC1` (stereo in doubt) [Compound 5, N-(5-(5-chlorothiophen-2-yl)-4-cyclobutyl-1H-pyrazol-3-yl)-2-(1-(trifluoromethyl)cyclopropyl)propanamide], the “Kv7.2/7.3 Activity” value is on record as “+ (“+” Moderate Activity 0.15-0.7)”.

Values taken from US20250171405A1, “PYRAZOLYL COMPOUNDS AS KV7 CHANNEL ACTIVATORS” (Biohaven Therapeutics Ltd., priority 2022, published 2025).
